Key:
[1] = biological target: T1, angiotensin II receptor subtype 2 (AT2) (Bos taurus, UniProt G5E6F7); experiment: Binding to receptors: angiotensin II receptor subtype 2 (AT2); settings: bovine cerebellar cortex, tracer 125I-Tyr4-angiotensin II
T1 construct: receptor : from cerebellar cortex in bovine; from tissue; host or cells: bovine cerebellar cortex
T1 sequence (G5E6F7 1-362): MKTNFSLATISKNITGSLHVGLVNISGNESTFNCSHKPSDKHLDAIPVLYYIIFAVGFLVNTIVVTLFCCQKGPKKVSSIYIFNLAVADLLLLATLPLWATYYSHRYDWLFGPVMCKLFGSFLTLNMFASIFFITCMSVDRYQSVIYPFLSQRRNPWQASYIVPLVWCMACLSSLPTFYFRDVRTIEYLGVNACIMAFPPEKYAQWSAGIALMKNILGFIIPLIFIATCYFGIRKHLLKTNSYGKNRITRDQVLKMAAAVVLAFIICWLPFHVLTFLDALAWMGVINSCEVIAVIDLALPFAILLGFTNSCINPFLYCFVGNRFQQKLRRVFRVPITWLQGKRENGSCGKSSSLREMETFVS
Experimental: In this Example, the affinity to the angiotensin II receptor subtype 1 or subtype 2 was evaluated by a binding assay in accordance with the method described in Biochem. Pharmacol., 33, 4057-4062 (1984).
Specifically, the measurement of the total binding in the presence of each drug was performed as follows:
A mixture (final volume=0.25 ml) of a drug in a given concentration (the drug was dissolved in DMSO, and diluted to a double volume with a buffer attached to a drug discovery system to prepare a sample for the assay; 0.025 ml), a tracer (0.025 ml), and receptors (0.2 ml) was incubated [in the case of the angiotensin II receptor subtype 1 (AT1), at room temperature for 3 hours, and in the case of the subtype 2 (AT2), at 37° C. for 1 hour]. Then, the reaction mixture was filtered with suction (GF/C filter was used in AT1, and GF/B filter was used in AT2). The filter papers after filtration with suction (the tracer bound to the receptors) were counted by a γ-well counter (ARC-500, Aloka). The non-specific bindings were measured by repeating the above method, except that a large excess amount of a displacer was added. The specific binding of the drug in the given concentration was calculated by subtracting the non-specific binding from the total binding, respectively.
In AT1 and AT2, the percentages found to inhibit the bindings of radioactive ligands (tracer) to receptors by the drugs to be tested (IC50 value of concentration to show 50% inhibition, or binding inhibition % in 100 μM) were measured, using the drugs to be tested and control drugs in the given concentration.
receptor : from cerebellar cortex in bovine
tracer : ^125 ITyr^4angiotensin II
control drug : angiotensin II (human)
(displacer) : angiotensin II (human)

[2] = system: kidney disease model rats; experiment: Action to lower blood pressure in kidney disease model rats (tail cuff); type: in vivo, Sprague-Dawley female rats; settings: systolic, average of 8 rats, 20 mg/kg with drinking water, two days after administration; control 210
Experimental: (§1) The compounds of the present invention and the reference substance were administered with drinking water to kidney disease model rats, and the action of lowering the blood pressure was observed. The kidney disease model rats were prepared by a ligature of branches of renal artery in accordance with a conventional method. Namely, the left hilum renalis of Sprague-Dawley female rats was exposed under anesthesia, and one of four secondary branches of the renal artery was left unligated, while the remaining three branches were ligated, respectively. After a week, the hilum renalis (artery, vein, and ureter) of the right kidney were further ligated to thereby prepare rats whose renal function was lowered to approximately 1/8 of the normal function. Each group consisted of eight rats. The drugs to be tested (20 mg/kg) were administered to each administering group, and only water was administered to a control group. Two days after the administration, the systolic blood pressure was measured by the tail cuff method using a blood pressure measuring apparatus (UR5000; Ueda).

[3] = system: kidney disease model rats; experiment: Renal function indicatory value in kidney disease model rats; type: in vivo, Sprague-Dawley female rats; settings: 20 mg/kg/day with drinking water, six weeks; for Creatinine clearance: 24 hours urine, control 0.22; for Creatinine / Blood urea nitrogen: serum; for Creatinine: control 2.0; for Blood urea nitrogen: control 100
Experimental: as §1, with “The” for “The compounds of the present invention and the reference substance were administered with drinking water to kidney disease model rats, and the action of lowering the blood pressure was observed. The”
The rats in each group were allowed to freely take up food. […] To the rats in the control group, only water was administered every day. After six weeks, 0.2 ml of blood was collected from the carotid artery of the rats under anesthesia, and centrifuged to obtain serum. Using 25 μl of the serum, the serum creatinine (Scr) was measured by a creatinine analytical instrument (Beckman). Using 10 μl of the serum, the blood urea nitrogen (BUN) was measured by a BUN analytical instrument (Beckman). The creatinine clearance was evaluated as follows:
After the serum creatinine measurement, rats were placed in urinary metabolic cages for 24 hours to collect urine. A urinary creatine concentration (Ucr) was measured by a creatinine analytical instrument, and a total volume of urination (Uvol) was also measured. The creatinine clearance (CCr) was calculated by the following formula: [formula]

[4] = system: kidney disease model rats; experiment: Survival time of kidney diseased animals; type: in vivo, Sprague-Dawley female rats; settings: 20 mg/kg/day with drinking water, observation period eight weeks (upper limit); control 5.0
Experimental: as §1
The kidney disease model rats were prepared as in Example 54. Twenty-two groups (8 rats per group) were prepared in a manner such that there was no major difference between the groups in the serum creatinine value and the blood urea nitrogen value indicating renal function. The rats in each group were allowed to freely take up food. […] To the rats in the control group, only water was administered every day. If kidney diseases are aggravated, the rat will die of uremia. Thus, the survival time was observed as a comprehensive indication of the improvement of the effect on the kidney diseases. The observation period was eight weeks. Thus if all rats survived, the average survival time is eight weeks, and is an upper limit.

Row | SMILES | inhibition at 100 µM [1] | Blood Pressure [2] | Creatinine clearance [3] | Creatinine [3] | Blood urea nitrogen [3] | Average survival time [4]
1 | CCCCC(=O)N(Cc1ccc(C(=O)OCCN(C)C)cc1)c1cc(C(=O)N2CCOCC2)ccc1N(C)C [Compound No. 1, 4-dimethylamino-3-N-[[[4-(2'-dimethylaminoethoxycarbonyl)phenyl]methyl]valeramido]benzoic acid morpholide] | 16% | 205 mmHg | 0.47 mL/min | 1.2 mg/dL | 62 mg/dL | 7.5 weeks
2 | CCCCC(=O)N(Cc1ccc(C(=O)OCCCN(C)C)cc1)c1cc(C(=O)N2CCOCC2)ccc1N(C)C [Compound No. 2, 4-dimethylamino-3-N-[[[4-(3'-dimethylaminopropoxycarbonyl)phenyl]methyl]valeramido]benzoic acid morpholide] | 0% | 200 mmHg | 0.33 mL/min | 1.3 mg/dL | 78 mg/dL | 6.9 weeks
3 | CCCCC(=O)N(Cc1ccc(C(=O)OCCN(CC)CC)cc1)c1cc(C(=O)N2CCOCC2)ccc1C(C)C [Compound No. 8, 3-N-[[[4-(2'-diethylaminoethoxycarbonyl)phenyl]methyl]valeramido]-4-i-propylbenzoic acid morpholide] | 0% | 203 mmHg | 0.35 mL/min | 1.5 mg/dL | 78 mg/dL | 6.9 weeks
4 | CCCCCCC(=O)N(Cc1ccc(C(=O)O)cc1)c1cc(C(=O)N2CCN(CCC)CC2)ccc1C(C)C [Compound No. 20, 3-N-[[(4-carboxyphenyl)methyl]n-heptanamido]-4-i-propylbenzoic acid 4'-n-propylpiperazide] | 0% | 209 mmHg | 0.32 mL/min | 1.3 mg/dL | 75 mg/dL | 7.3 weeks
5 | CCCCCCC(=O)N(Cc1ccc(C(=O)O)cc1)c1cc(C(=O)N2CCN(C)CC2)ccc1N(C)C [Compound No. 13, 3-[[(4-carboxyohenyl)methyl]n-heptanamido]-4-dimethylaminobenzoic acid 4'-methylpiperazide] | 0% | 208 mmHg | 0.32 mL/min | 1.5 mg/dL | 77 mg/dL | 6.9 weeks
6 | CCCCCCC(=O)N(Cc1ccc(C(=O)O)cc1)c1cc(C(=O)N2CCN(CCC)CC2)ccc1N(C)C [Compound No. 12, 4-dimethylamino-3-N-[[(4-carboxyphenyl)methyl]n-heptanamido]benzoic acid 4'-n-propyl piperazide] | 0% | 202 mmHg | 0.35 mL/min | 1.3 mg/dL | 80 mg/dL | 7.0 weeks
7 | CCCCCCC(=O)N(Cc1ccc(C(=O)O)cc1)c1cc(C(=O)N2CCN(C)CC2)ccc1C(C)C [Compound No. 18, 3-N-[[(4-carboxyphenyl)methyl]n-heptanamido]-4-i-propylbenzoic acid 4'-methylpiperazide] | 9% | 210 mmHg | 0.32 mL/min | 1.4 mg/dL | 76 mg/dL | 7.0 weeks
8 | CCCCC(=O)N(Cc1ccc(C(=O)OCCCN)cc1)c1cc(C(=O)N2CCOCC2)ccc1N(C)C [Compound No. 3, 3-N-[[[4-(3'-aminopropoxycarbonyl)phenyl]methyl]valeramido]-4-dimethylaminobenzoic acid morpholide] | 0% | 203 mmHg | 0.33 mL/min | 1.3 mg/dL | 78 mg/dL | 6.9 weeks
9 | CCCCC(=O)N(Cc1ccc(C(=O)OCCN(C)C)cc1)c1cc(C(=O)N2CCOCC2)ccc1C(C)C [Compound No. 6, 3-N-[[[4-(2'-dimethylaminoethoxycarbonyl)phenyl]methyl]valeramido]-4-i-propylbenzoic acid morpholide] | 21% | 209 mmHg | 0.33 mL/min | 1.3 mg/dL | 75 mg/dL | 7.0 weeks
10 | CCCCC(=O)N(Cc1ccc(C(=O)O)cc1)c1cc(C(=O)N2CCN(CCC)CC2)ccc1C(C)C [Compound No. 19, 3-[[(4-carboxyphenyl)methyl]valeramido]-4-i-propylbenzoic acid 4'-n-propylpiperazide] | 18% | 194 mmHg | 0.33 mL/min | 1.3 mg/dL | 76 mg/dL | 7.2 weeks
11 | CCCCC(=O)N(Cc1ccc(C(=O)OCCN2CCOCC2)cc1)c1cc(C(=O)N2CCOCC2)ccc1C(C)C [Compound No. 9, 3-N-[[[4-(2'-morpholinoethoxycarbonyl)phenyl]methyl]valeramido]-i-propylbenzoic acid morpholide] | 0% | 207 mmHg | 0.31 mL/min | 1.6 mg/dL | 83 mg/dL | 6.9 weeks
12 | CCCCC(=O)N(Cc1ccc(C(=O)O)cc1)c1cc(C(=O)N2CCN(C)CC2)ccc1C(C)C [Compound No. 15, 3-[[(4-carboxyphenyl)methyl]valeramido]-4-i-propylbenzoic acid 4'-methylpiperazide] | 0% | 200 mmHg | 0.26 mL/min | 1.8 mg/dL | 90 mg/dL | 6.1 weeks
